In publication PMC4823954, “From fighting depression to conquering tumors: a novel tricyclic thiazepine compound as a tubulin polymerization inhibitor” (Cell Death & Disease, 2016):

Columns and labels:
Experiment in all cases: KINOMEscan
Assay type in all cases: binding
Details in all cases: read-out: % Ctrl
[1] = target: T1, AAK1 (Homo sapiens, UniProt Q2M2I8)
T1 construct: purchased DiscoveRx KINOMEscan
Summary of the method: (§1)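 Competition binding panel of 442 non-mutant kinases: test compound at 5 and 10 μM competed with an active-site-directed ligand for 1 h with shaking. Bound kinase was eluted with 0.5 μM ligand and quantified by qPCR; %Ctrl = (compound − positive control)/(DMSO − positive control) × 100, lower meaning tighter binding.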

[2] = target: T2, AURKB (Homo sapiens, UniProt Q96GD4)
T2 construct: purchased DiscoveRx KINOMEscan
Summary of the method: as §1

[3] = target: T3, AXL (Homo sapiens, UniProt P30530)
T3 construct: purchased DiscoveRx KINOMEscan
Summary of the method: as §1

[4] = target: T4, BRAF(V600E) (Homo sapiens, UniProt P15056, V600E)
T4 construct: purchased DiscoveRx KINOMEscan

[5] = target: T5, CDK11 (Homo sapiens, UniProt Q9BWU1)
T5 construct: purchased DiscoveRx KINOMEscan
Summary of the method: as §1

[6] = target: T6, CDK2 (Homo sapiens, UniProt P24941)
T6 construct: purchased DiscoveRx KINOMEscan
Summary of the method: as §1

[7] = target: T7, CLK2 (Homo sapiens, UniProt P49760)
T7 construct: purchased DiscoveRx KINOMEscan
Summary of the method: as §1

[8] = target: T8, CSNK2A1 (Homo sapiens, UniProt P68400)
T8 construct: purchased DiscoveRx KINOMEscan
Summary of the method: as §1

[9] = target: T9, DCAMKL3 (Homo sapiens, UniProt Q9C098)
T9 construct: purchased DiscoveRx KINOMEscan
Summary of the method: as §1

[10] = target: T10, DYRK1B (Homo sapiens, UniProt Q9Y463)
T10 construct: purchased DiscoveRx KINOMEscan
Summary of the method: as §1

[11] = target: T11, DYRK2 (Homo sapiens, UniProt Q92630)
T11 construct: purchased DiscoveRx KINOMEscan
Summary of the method: as §1

[12] = target: T12, EGFR(S752-I759del) (Homo sapiens, UniProt P00533, DEL752-759)
T12 construct: purchased DiscoveRx KINOMEscan

[13] = target: T13, ERN1 (Homo sapiens, UniProt O75460)
T13 construct: purchased DiscoveRx KINOMEscan
T13 sequence (O75460 19-977): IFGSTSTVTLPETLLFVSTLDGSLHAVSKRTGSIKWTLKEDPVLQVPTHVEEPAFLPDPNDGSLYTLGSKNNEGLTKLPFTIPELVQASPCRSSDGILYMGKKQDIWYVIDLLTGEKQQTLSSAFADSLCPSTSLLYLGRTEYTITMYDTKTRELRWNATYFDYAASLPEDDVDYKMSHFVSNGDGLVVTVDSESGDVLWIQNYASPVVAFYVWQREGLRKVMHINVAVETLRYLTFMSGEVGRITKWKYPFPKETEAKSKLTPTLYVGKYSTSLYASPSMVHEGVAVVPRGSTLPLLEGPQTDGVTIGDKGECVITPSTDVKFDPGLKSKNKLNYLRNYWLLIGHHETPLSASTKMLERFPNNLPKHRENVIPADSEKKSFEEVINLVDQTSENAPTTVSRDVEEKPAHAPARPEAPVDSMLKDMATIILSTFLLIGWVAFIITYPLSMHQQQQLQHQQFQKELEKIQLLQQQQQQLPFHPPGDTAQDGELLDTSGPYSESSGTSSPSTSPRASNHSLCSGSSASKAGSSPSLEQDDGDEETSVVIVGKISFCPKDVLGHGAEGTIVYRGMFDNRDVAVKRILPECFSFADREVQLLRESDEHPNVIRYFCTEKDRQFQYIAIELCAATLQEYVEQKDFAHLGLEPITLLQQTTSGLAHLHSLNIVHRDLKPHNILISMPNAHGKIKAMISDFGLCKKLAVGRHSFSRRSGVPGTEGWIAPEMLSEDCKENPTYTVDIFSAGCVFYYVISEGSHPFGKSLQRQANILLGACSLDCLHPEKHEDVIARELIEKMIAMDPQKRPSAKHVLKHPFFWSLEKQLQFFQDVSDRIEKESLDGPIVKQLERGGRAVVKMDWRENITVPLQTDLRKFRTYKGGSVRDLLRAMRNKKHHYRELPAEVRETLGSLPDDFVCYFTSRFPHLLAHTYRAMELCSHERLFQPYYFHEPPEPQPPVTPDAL
Summary of the method: as §1

[14] = target: T14, FGR (Homo sapiens, UniProt P09769)
T14 construct: purchased DiscoveRx KINOMEscan
Summary of the method: as §1

[15] = target: T15, FLT1 (Homo sapiens, UniProt P17948)
T15 construct: purchased DiscoveRx KINOMEscan
Summary of the method: as §1

[16] = target: T16, GSK3A (Homo sapiens, UniProt P49840)
T16 construct: purchased DiscoveRx KINOMEscan
Summary of the method: as §1

[17] = target: T17, HIPK1 (Homo sapiens, UniProt Q86Z02)
T17 construct: purchased DiscoveRx KINOMEscan
Summary of the method: as §1

[18] = target: T18, LYN (Homo sapiens, UniProt P07948)
T18 construct: purchased DiscoveRx KINOMEscan
T18 sequence (P07948 whole entry): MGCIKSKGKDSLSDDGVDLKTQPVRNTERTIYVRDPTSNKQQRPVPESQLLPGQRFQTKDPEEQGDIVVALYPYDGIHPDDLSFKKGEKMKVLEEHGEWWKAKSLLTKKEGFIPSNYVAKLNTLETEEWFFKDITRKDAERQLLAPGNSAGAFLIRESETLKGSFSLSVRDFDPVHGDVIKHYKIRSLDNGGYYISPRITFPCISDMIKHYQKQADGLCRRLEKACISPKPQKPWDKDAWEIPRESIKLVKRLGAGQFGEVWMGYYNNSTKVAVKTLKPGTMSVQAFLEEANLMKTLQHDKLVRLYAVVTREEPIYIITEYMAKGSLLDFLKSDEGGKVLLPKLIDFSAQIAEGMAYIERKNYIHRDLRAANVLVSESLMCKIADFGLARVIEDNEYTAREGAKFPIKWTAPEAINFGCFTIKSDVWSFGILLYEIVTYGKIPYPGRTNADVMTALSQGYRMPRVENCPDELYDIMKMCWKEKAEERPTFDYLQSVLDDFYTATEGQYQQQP
Summary of the method: as §1

[19] = target: T19, MAP4K5 (Homo sapiens, UniProt Q9Y4K4)
T19 construct: purchased DiscoveRx KINOMEscan
T19 sequence (Q9Y4K4 whole entry): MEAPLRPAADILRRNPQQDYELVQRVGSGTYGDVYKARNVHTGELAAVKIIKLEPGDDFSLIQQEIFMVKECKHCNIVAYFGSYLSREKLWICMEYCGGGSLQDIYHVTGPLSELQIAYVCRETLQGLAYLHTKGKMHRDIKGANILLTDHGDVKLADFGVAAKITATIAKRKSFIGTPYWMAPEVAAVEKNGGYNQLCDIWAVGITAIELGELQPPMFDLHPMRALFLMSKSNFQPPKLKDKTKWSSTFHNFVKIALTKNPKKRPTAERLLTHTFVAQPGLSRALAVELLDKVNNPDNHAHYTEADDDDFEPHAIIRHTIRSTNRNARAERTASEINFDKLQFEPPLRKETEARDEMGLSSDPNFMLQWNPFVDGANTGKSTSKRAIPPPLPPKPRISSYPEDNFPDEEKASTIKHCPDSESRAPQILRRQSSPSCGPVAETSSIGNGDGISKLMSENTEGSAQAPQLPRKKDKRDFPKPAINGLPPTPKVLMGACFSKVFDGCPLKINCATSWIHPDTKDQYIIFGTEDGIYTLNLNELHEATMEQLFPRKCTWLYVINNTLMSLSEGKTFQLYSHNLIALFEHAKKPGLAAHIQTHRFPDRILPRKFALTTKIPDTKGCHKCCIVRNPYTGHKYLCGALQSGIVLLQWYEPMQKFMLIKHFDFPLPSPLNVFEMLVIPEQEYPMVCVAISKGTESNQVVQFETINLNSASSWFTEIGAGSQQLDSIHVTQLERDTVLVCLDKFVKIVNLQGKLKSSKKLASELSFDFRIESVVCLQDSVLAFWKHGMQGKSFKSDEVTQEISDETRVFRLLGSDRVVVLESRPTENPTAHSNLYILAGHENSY
Summary of the method: as §1

[20] = target: T20, MAST1 (Homo sapiens, UniProt Q9Y2H9)
T20 construct: purchased DiscoveRx KINOMEscan
Summary of the method: as §1

[21] = target: T21, MRCKB (Homo sapiens, UniProt Q9Y5S2)
T21 construct: purchased DiscoveRx KINOMEscan
Summary of the method: as §1

[22] = target: T22, MYLK (Homo sapiens, UniProt Q15746)
T22 construct: purchased DiscoveRx KINOMEscan
Summary of the method: as §1

[23] = target: T23, NEK3 (Homo sapiens, UniProt P51956)
T23 construct: purchased DiscoveRx KINOMEscan
T23 sequence (P51956 whole entry): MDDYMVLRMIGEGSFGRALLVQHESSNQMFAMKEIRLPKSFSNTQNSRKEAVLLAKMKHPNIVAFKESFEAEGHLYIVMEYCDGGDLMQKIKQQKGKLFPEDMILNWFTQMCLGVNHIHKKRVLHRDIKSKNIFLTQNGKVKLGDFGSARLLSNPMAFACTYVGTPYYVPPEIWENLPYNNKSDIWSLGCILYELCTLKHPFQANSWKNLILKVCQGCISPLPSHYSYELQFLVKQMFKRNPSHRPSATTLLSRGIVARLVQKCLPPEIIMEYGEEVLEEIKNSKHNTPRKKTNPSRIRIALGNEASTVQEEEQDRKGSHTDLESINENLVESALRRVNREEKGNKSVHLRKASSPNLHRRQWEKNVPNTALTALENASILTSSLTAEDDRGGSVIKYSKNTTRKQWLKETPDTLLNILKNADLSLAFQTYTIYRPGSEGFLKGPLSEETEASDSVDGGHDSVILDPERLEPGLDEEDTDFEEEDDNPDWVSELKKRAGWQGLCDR
Summary of the method: as §1

[24] = target: T24, RIPK5 (Homo sapiens, UniProt Q6XUX3)
T24 construct: purchased DiscoveRx KINOMEscan
T24 sequence (Q6XUX3 whole entry): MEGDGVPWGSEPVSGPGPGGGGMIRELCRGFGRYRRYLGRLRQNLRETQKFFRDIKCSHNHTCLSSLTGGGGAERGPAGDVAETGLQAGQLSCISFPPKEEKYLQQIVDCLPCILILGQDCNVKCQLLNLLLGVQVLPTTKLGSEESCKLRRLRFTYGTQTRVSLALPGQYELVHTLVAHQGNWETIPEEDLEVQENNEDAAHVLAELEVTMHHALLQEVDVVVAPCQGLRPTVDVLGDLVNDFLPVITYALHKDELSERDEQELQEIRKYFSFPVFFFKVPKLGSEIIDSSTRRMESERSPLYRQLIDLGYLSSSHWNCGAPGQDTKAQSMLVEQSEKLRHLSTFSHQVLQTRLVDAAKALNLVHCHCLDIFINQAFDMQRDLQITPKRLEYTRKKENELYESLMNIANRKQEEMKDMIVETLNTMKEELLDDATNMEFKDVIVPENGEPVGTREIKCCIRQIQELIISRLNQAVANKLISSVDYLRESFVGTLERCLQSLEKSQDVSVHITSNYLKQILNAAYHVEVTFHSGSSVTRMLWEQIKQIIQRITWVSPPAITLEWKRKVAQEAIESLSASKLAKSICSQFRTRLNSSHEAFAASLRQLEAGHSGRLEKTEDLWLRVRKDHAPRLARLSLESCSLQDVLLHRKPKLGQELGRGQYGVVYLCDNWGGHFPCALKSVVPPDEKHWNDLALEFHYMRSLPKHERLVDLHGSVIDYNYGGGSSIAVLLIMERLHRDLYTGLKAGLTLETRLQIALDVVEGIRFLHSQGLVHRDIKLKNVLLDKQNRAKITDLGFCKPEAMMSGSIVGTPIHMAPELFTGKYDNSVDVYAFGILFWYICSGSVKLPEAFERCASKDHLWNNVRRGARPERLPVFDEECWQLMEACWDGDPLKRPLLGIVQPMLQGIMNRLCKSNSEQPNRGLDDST
Summary of the method: as §1

[25] = target: T25, RPS6KA5(Kin.Dom.1-N-terminal) (Homo sapiens, UniProt O75582)
T25 construct: RPS6KA5(Kin.Dom.1-N-terminal); purchased DiscoveRx KINOMEscan
Summary of the method: as §1

[26] = target: T26, STK16 (Homo sapiens, UniProt O75716)
T26 construct: purchased DiscoveRx KINOMEscan
Summary of the method: as §1

[27] = target: T27, STK35 (Homo sapiens, UniProt Q8TDR2)
T27 construct: purchased DiscoveRx KINOMEscan
Summary of the method: as §1

[28] = target: T28, TNK2 (Homo sapiens, UniProt Q07912)
T28 construct: purchased DiscoveRx KINOMEscan
Summary of the method: as §1

[29] = target: T29, TYRO3 (Homo sapiens, UniProt Q06418)
T29 construct: purchased DiscoveRx KINOMEscan
Summary of the method: as §1

[30] = target: T30, ULK1 (Homo sapiens, UniProt O75385)
T30 construct: purchased DiscoveRx KINOMEscan
T30 sequence (O75385 whole entry): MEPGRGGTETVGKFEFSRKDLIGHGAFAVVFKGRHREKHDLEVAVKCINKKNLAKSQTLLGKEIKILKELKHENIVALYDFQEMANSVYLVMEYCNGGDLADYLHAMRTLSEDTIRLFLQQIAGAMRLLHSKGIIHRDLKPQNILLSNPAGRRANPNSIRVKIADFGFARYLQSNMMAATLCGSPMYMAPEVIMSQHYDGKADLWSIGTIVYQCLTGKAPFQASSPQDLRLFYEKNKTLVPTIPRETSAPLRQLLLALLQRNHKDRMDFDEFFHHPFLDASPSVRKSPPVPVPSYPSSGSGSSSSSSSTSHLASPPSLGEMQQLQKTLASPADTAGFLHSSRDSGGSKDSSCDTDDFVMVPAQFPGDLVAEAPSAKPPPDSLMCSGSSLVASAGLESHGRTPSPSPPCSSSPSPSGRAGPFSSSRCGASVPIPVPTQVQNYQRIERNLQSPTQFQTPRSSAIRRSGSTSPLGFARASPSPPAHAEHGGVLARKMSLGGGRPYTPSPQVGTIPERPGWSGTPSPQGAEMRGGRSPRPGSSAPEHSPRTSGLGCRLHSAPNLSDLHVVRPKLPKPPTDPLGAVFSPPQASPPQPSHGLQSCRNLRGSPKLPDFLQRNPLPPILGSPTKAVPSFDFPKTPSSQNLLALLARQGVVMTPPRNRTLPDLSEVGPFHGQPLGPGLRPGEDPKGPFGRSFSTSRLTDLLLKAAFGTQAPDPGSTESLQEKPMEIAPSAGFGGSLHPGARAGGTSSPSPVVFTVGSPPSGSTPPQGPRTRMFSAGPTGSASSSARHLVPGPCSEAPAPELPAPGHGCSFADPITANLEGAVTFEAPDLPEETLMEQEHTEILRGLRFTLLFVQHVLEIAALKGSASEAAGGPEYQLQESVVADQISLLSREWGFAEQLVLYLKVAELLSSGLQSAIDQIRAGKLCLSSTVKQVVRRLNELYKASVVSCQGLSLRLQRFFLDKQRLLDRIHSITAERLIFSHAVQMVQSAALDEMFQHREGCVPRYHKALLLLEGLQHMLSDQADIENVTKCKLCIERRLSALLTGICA
Summary of the method: as §1

Structure (SMILES): Cc1ccc(C2=Nc3cccnc3S(=O)(=O)c3ccccc32)cc1 [TBPT, 6-(p-tolyl)benzo[f] pyrido[2,3-b][1,4] thiazepine 11,11-dioxide]
- remaining binding at 5 µM ([1]; 5 μM): 100%
- remaining binding at 10 µM ([1]; 10 μM): 89%
- remaining binding at 5 µM ([2]; 5 μM): 98%
- remaining binding at 10 µM ([2]; 10 μM): 92%
- remaining binding at 5 µM ([3]; 5 μM): 98%
- remaining binding at 10 µM ([3]; 10 μM): 100%
- remaining binding at 5 µM ([4]; 5 μM): 94%
- remaining binding at 10 µM ([4]; 10 μM): 94%
- remaining binding at 5 µM ([5]; 5 μM): 100%
- remaining binding at 10 µM ([5]; 10 μM): 100%
- remaining binding at 5 µM ([6]; 5 μM): 98%
- remaining binding at 10 µM ([6]; 10 μM): 93%
- remaining binding at 5 µM ([7]; 5 μM): 100%
- remaining binding at 10 µM ([7]; 10 μM): 100%
- remaining binding at 5 µM ([8]; 5 μM): 100%
- remaining binding at 10 µM ([8]; 10 μM): 84%
- remaining binding at 5 µM ([9]; 5 μM): 100%
- remaining binding at 10 µM ([9]; 10 μM): 79%
- remaining binding at 5 µM ([10]; 5 μM): 99%
- remaining binding at 10 µM ([10]; 10 μM): 100%
- remaining binding at 5 µM ([11]; 5 μM): 93%
- remaining binding at 10 µM ([11]; 10 μM): 100%
- remaining binding at 5 µM ([12]; 5 μM): 79%
- remaining binding at 10 µM ([12]; 10 μM): 100%
- remaining binding at 5 µM ([13]; 5 μM): 92%
- remaining binding at 10 µM ([13]; 10 μM): 100%
- remaining binding at 5 µM ([14]; 5 μM): 97%
- remaining binding at 10 µM ([14]; 10 μM): 73%
- remaining binding at 5 µM ([15]; 5 μM): 100%
- remaining binding at 10 µM ([15]; 10 μM): 98%
- remaining binding at 5 µM ([16]; 5 μM): 100%
- remaining binding at 10 µM ([16]; 10 μM): 100%
- remaining binding at 5 µM ([17]; 5 μM): 71%
- remaining binding at 10 µM ([17]; 10 μM): 63%
- remaining binding at 5 µM ([18]; 5 μM): 87%
- remaining binding at 10 µM ([18]; 10 μM): 100%
- remaining binding at 5 µM ([19]; 5 μM): 100%
- remaining binding at 10 µM ([19]; 10 μM): 85%
- remaining binding at 5 µM ([20]; 5 μM): 45%
- remaining binding at 10 µM ([20]; 10 μM): 87%
- remaining binding at 5 µM ([21]; 5 μM): 89%
- remaining binding at 10 µM ([21]; 10 μM): 92%
- remaining binding at 5 µM ([22]; 5 μM): 100%
- remaining binding at 10 µM ([22]; 10 μM): 81%
- remaining binding at 5 µM ([23]; 5 μM): 100%
- remaining binding at 10 µM ([23]; 10 μM): 100%
- remaining binding at 5 µM ([24]; 5 μM): 58%
- remaining binding at 10 µM ([24]; 10 μM): 83%
- remaining binding at 5 µM ([25]; 5 μM): 100%
- remaining binding at 10 µM ([25]; 10 μM): 100%
- remaining binding at 5 µM ([26]; 5 μM): 99%
- remaining binding at 10 µM ([26]; 10 μM): 91%
- remaining binding at 5 µM ([27]; 5 μM): 97%
- remaining binding at 10 µM ([27]; 10 μM): 100%
- remaining binding at 5 µM ([28]; 5 μM): 100%
- remaining binding at 10 µM ([28]; 10 μM): 100%
- remaining binding at 5 µM ([29]; 5 μM): 99%
- remaining binding at 10 µM ([29]; 10 μM): 100%
- remaining binding at 5 µM ([30]; 5 μM): 100%
- remaining binding at 10 µM ([30]; 10 μM): 83%
